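Cultured in 96-well plates, cells were exposed to test compound for 48 hours across five concentrations. At the GI50, growth is halved. Definition used: TGI = concentration required for complete inhibition of growth.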
Experiments:
Assay in all cases: NCI-60 cell line screen, 48 h
ACHN renal = test system: ACHN renal
K-562 leukemia = test system: K-562 leukemia
PC-3 prostate = test system: PC-3 prostate
UO-31 renal = test system: UO-31 renal
HT29 colon = test system: HT29 colon
MDA-MB-231 breast = test system: MDA-MB-231 breast
RXF 393 renal = test system: RXF 393 renal
HOP-62 NSCLC = test system: HOP-62 NSCLC
EKVX NSCLC = test system: EKVX NSCLC
T-47D breast = test system: T-47D breast
CAKI-1 renal = test system: CAKI-1 renal
BT-549 breast = test system: BT-549 breast
IGROV1 ovarian = test system: IGROV1 ovarian
NCI-H23 lung = test system: NCI-H23 lung
NCI-H522 lung = test system: NCI-H522 lung
COLO 205 colon = test system: COLO 205 colon
SN12C renal = test system: SN12C renal
A549 NSCLC = test system: A549 NSCLC
A498 renal = test system: A498 renal
NCI-H226 lung = test system: NCI-H226 lung
SNB-19 CNS = test system: SNB-19 CNS
HCT-116 colon = test system: HCT-116 colon
HL-60(TB) leukemia = test system: HL-60(TB) leukemia
SK-OV-3 ovarian = test system: SK-OV-3 ovarian
NCI/ADR-RES ovarian = test system: NCI/ADR-RES ovarian
M14 melanoma = test system: M14 melanoma
KM12 colon = test system: KM12 colon
MDA-MB-468 breast = test system: MDA-MB-468 breast
CCRF-CEM leukemia = test system: CCRF-CEM leukemia
SK-MEL-28 melanoma = test system: SK-MEL-28 melanoma
HOP-92 NSCLC = test system: HOP-92 NSCLC
SK-MEL-2 melanoma = test system: SK-MEL-2 melanoma
SF-295 CNS = test system: SF-295 CNS
SF-539 CNS = test system: SF-539 CNS
SF-268 CNS = test system: SF-268 CNS
RPMI-8226 leukemia = test system: RPMI-8226 leukemia
OVCAR-8 ovarian = test system: OVCAR-8 ovarian
HS 578T breast = test system: HS 578T breast
OVCAR-3 ovarian = test system: OVCAR-3 ovarian
SK-MEL-5 melanoma = test system: SK-MEL-5 melanoma
OVCAR-4 ovarian = test system: OVCAR-4 ovarian
OVCAR-5 ovarian = test system: OVCAR-5 ovarian
LOX IMVI melanoma = test system: LOX IMVI melanoma
HCT-15 colon = test system: HCT-15 colon
MALME-3M melanoma = test system: MALME-3M melanoma
DU-145 prostate = test system: DU-145 prostate
MCF7 breast = test system: MCF7 breast
MDA-MB-435 = test system: MDA-MB-435
NCI-H460 lung = test system: NCI-H460 lung
UACC-62 melanoma = test system: UACC-62 melanoma
SR leukemia = test system: SR leukemia
HCC-2998 colon = test system: HCC-2998 colon
SW-620 colon = test system: SW-620 colon
MOLT-4 leukemia = test system: MOLT-4 leukemia
TK-10 renal = test system: TK-10 renal
786-0 renal = test system: 786-0 renal
U251 CNS = test system: U251 CNS
UACC-257 melanoma = test system: UACC-257 melanoma

COc1ccc(C(=O)/C=C/c2ccc3ccccc3c2)cc1S(N)(=O)=O
GI50 (ACHN renal): 1.78 µM
TGI (ACHN renal): 3.37 µM
GI50 (K-562 leukemia): 1.58 µM
TGI (K-562 leukemia): 5.45 µM
GI50 (PC-3 prostate): 1.78 µM
TGI (PC-3 prostate): 4.05 µM
GI50 (UO-31 renal): 1.31 µM
TGI (UO-31 renal): 2.58 µM
GI50 (HT29 colon): 1.67 µM
TGI (HT29 colon): 3.53 µM
GI50 (MDA-MB-231 breast): 2.5 µM
TGI (MDA-MB-231 breast): 7.51 µM
GI50 (RXF 393 renal): 1.57 µM
TGI (RXF 393 renal): 3.34 µM
GI50 (HOP-62 NSCLC): 1.99 µM
TGI (HOP-62 NSCLC): 5.49 µM
GI50 (EKVX NSCLC): 6.61 µM
TGI (EKVX NSCLC): 20.1 µM
GI50 (T-47D breast): 1.76 µM
TGI (T-47D breast): 6.77 µM
GI50 (CAKI-1 renal): 2.12 µM
TGI (CAKI-1 renal): 6.17 µM
GI50 (BT-549 breast): 1.53 µM
TGI (BT-549 breast): 3.27 µM
GI50 (IGROV1 ovarian): 2.07 µM
TGI (IGROV1 ovarian): 5.36 µM
GI50 (NCI-H23 lung): 1.73 µM
TGI (NCI-H23 lung): 3.3 µM
GI50 (NCI-H522 lung): 1.62 µM
TGI (NCI-H522 lung): 3.32 µM
GI50 (COLO 205 colon): 1.96 µM
TGI (COLO 205 colon): 4.06 µM
GI50 (SN12C renal): 1.56 µM
TGI (SN12C renal): 3.25 µM
GI50 (A549 NSCLC): 1.99 µM
TGI (A549 NSCLC): 7.72 µM
GI50 (A498 renal): 14.6 µM
TGI (A498 renal): 28.2 µM
GI50 (NCI-H226 lung): 2.36 µM
TGI (NCI-H226 lung): 8.37 µM
GI50 (SNB-19 CNS): 2.15 µM
TGI (SNB-19 CNS): 5.95 µM
GI50 (HCT-116 colon): 1.9 µM
TGI (HCT-116 colon): 4.82 µM
GI50 (HL-60(TB) leukemia): 1.61 µM
TGI (HL-60(TB) leukemia): 4.11 µM
GI50 (SK-OV-3 ovarian): 4.91 µM
TGI (SK-OV-3 ovarian): 18.6 µM
GI50 (NCI/ADR-RES ovarian): 2.7 µM
TGI (NCI/ADR-RES ovarian): 8.21 µM
GI50 (M14 melanoma): 2.26 µM
TGI (M14 melanoma): 5.98 µM
GI50 (KM12 colon): 1.56 µM
TGI (KM12 colon): 3.33 µM
GI50 (MDA-MB-468 breast): 1.43 µM
TGI (MDA-MB-468 breast): 2.9 µM
GI50 (CCRF-CEM leukemia): 2.63 µM
TGI (CCRF-CEM leukemia): 6.4 µM
GI50 (SK-MEL-28 melanoma): 2.13 µM
TGI (SK-MEL-28 melanoma): 5.14 µM
GI50 (HOP-92 NSCLC): 1.9 µM
TGI (HOP-92 NSCLC): 9.2 µM
GI50 (SK-MEL-2 melanoma): 12.2 µM
TGI (SK-MEL-2 melanoma): 25.4 µM
GI50 (SF-295 CNS): 1.88 µM
TGI (SF-295 CNS): 4.89 µM
GI50 (SF-539 CNS): 1.69 µM
TGI (SF-539 CNS): 3.15 µM
GI50 (SF-268 CNS): 3.2 µM
TGI (SF-268 CNS): 13.3 µM
GI50 (RPMI-8226 leukemia): 1.63 µM
TGI (RPMI-8226 leukemia): 4.62 µM
GI50 (OVCAR-8 ovarian): 2.48 µM
TGI (OVCAR-8 ovarian): 7.04 µM
GI50 (HS 578T breast): 17.5 µM
TGI (HS 578T breast): 54.8 µM
GI50 (OVCAR-3 ovarian): 1.58 µM
TGI (OVCAR-3 ovarian): 3.38 µM
GI50 (SK-MEL-5 melanoma): 3.48 µM
TGI (SK-MEL-5 melanoma): 13.6 µM
GI50 (OVCAR-4 ovarian): 2.96 µM
TGI (OVCAR-4 ovarian): 10.9 µM
GI50 (OVCAR-5 ovarian): 1.75 µM
TGI (OVCAR-5 ovarian): 4.15 µM
GI50 (LOX IMVI melanoma): 1.32 µM
TGI (LOX IMVI melanoma): 2.59 µM
GI50 (HCT-15 colon): 0.574 µM
TGI (HCT-15 colon): 2.08 µM
GI50 (MALME-3M melanoma): 3.2 µM
TGI (MALME-3M melanoma): 14.9 µM
GI50 (DU-145 prostate): 3.31 µM
TGI (DU-145 prostate): 11.8 µM
GI50 (MCF7 breast): 1.54 µM
TGI (MCF7 breast): 4.72 µM
GI50 (MDA-MB-435): 2.4 µM
TGI (MDA-MB-435): 6.72 µM
GI50 (NCI-H460 lung): 2.96 µM
TGI (NCI-H460 lung): 8.84 µM
GI50 (UACC-62 melanoma): 1.6 µM
TGI (UACC-62 melanoma): 3.32 µM
GI50 (SR leukemia): 0.867 µM
TGI (SR leukemia): 3.54 µM
GI50 (HCC-2998 colon): 1.56 µM
TGI (HCC-2998 colon): 2.93 µM
GI50 (SW-620 colon): 1.78 µM
TGI (SW-620 colon): 3.6 µM
GI50 (MOLT-4 leukemia): 2.09 µM
TGI (MOLT-4 leukemia): 4.95 µM
GI50 (TK-10 renal): 2.04 µM
TGI (TK-10 renal): 8.17 µM
GI50 (786-0 renal): 1.69 µM
TGI (786-0 renal): 3.62 µM
GI50 (U251 CNS): 1.19 µM
TGI (U251 CNS): 2.46 µM
GI50 (UACC-257 melanoma): 3.79 µM
TGI (UACC-257 melanoma): 14.5 µM

From PubChem BioAssay (NCI)
